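A five-concentration, 48-hour dose response in 96-well plates underlies each endpoint, interpolated linearly between surrounding concentrations. The concentration for full growth arrest is given as TGI.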
Experiments:
Assay in all cases: inhibition of tumour cell growth, NCI panel, 48 h
HS 578T breast = test system: HS 578T breast
LOX IMVI melanoma = test system: LOX IMVI melanoma
HL-60(TB) leukemia = test system: HL-60(TB) leukemia
UACC-62 melanoma = test system: UACC-62 melanoma
A498 renal = test system: A498 renal
SW-620 colon = test system: SW-620 colon
NCI-H226 lung = test system: NCI-H226 lung
786-0 renal = test system: 786-0 renal
OVCAR-3 ovarian = test system: OVCAR-3 ovarian
NCI/ADR-RES ovarian = test system: NCI/ADR-RES ovarian
CCRF-CEM leukemia = test system: CCRF-CEM leukemia
BT-549 breast = test system: BT-549 breast

## CCOC(=O)/C=C/[C@H](O[Si](c1ccccc1)(c1ccccc1)c1ccccc1)C(C)(C)C
HS 578T breast
  TGI: > 31.6 µM
LOX IMVI melanoma
  TGI: > 31.6 µM
HL-60(TB) leukemia
  TGI: > 100 µM
UACC-62 melanoma
  TGI: > 31.6 µM
A498 renal
  TGI: > 31.6 µM
SW-620 colon
  TGI: > 31.6 µM
NCI-H226 lung
  TGI: > 31.6 µM
786-0 renal
  TGI: > 31.6 µM
OVCAR-3 ovarian
  TGI: > 31.6 µM
NCI/ADR-RES ovarian
  TGI: > 31.6 µM
CCRF-CEM leukemia
  TGI: > 31.6 µM

## O=C(/C=C/c1ccc(Cl)c(Cl)c1)CCN1CCN(CCC(=O)/C=C/c2ccc(Cl)c(Cl)c2)CC1
LOX IMVI melanoma
  TGI: 33.7 µM
HL-60(TB) leukemia
  TGI: > 100 µM
UACC-62 melanoma
  TGI: 45.3 µM
A498 renal
  TGI: > 100 µM
SW-620 colon
  TGI: 52.1 µM
NCI-H226 lung
  TGI: 72.8 µM
786-0 renal
  TGI: 21 µM
OVCAR-3 ovarian
  TGI: 58.4 µM
BT-549 breast
  TGI: 59.8 µM
NCI/ADR-RES ovarian
  TGI: > 100 µM
CCRF-CEM leukemia
  TGI: > 100 µM

## COc1ccccc1/C=C1/Sc2scc(CC(=O)Nc3ccccc3)[n+]2C1=O
HS 578T breast
  TGI: > 100 µM
LOX IMVI melanoma
  TGI: > 100 µM
HL-60(TB) leukemia
  TGI: 47.1 µM
UACC-62 melanoma
  TGI: 45.1 µM
SW-620 colon
  TGI: > 100 µM
NCI-H226 lung
  TGI: 69.7 µM
786-0 renal
  TGI: > 100 µM
OVCAR-3 ovarian
  TGI: 43.4 µM
BT-549 breast
  TGI: 93.2 µM
NCI/ADR-RES ovarian
  TGI: 59.9 µM
CCRF-CEM leukemia
  TGI: 51.7 µM

## OCC1CCCCN1Cc1nc2ccc(Cl)cc2[nH]1 (stereo not drawn)
HS 578T breast
  TGI: > 100 µM
HL-60(TB) leukemia
  TGI: > 100 µM
UACC-62 melanoma
  TGI: > 100 µM
A498 renal
  TGI: > 100 µM
SW-620 colon
  TGI: > 100 µM
NCI-H226 lung
  TGI: > 100 µM
786-0 renal
  TGI: > 100 µM
OVCAR-3 ovarian
  TGI: > 100 µM
BT-549 breast
  TGI: > 100 µM
NCI/ADR-RES ovarian
  TGI: > 100 µM
CCRF-CEM leukemia
  TGI: > 100 µM

## Cc1cc2nc3c(C(O)CO)nn(-c4ccccc4)c3nc2cc1C (stereo not drawn)
HS 578T breast
  TGI: 70.9 µM
LOX IMVI melanoma
  TGI: 66.3 µM
HL-60(TB) leukemia
  TGI: 45.8 µM
A498 renal
  TGI: 34.9 µM
SW-620 colon
  TGI: 55.4 µM
NCI-H226 lung
  TGI: 98.2 µM
786-0 renal
  TGI: 42.8 µM
OVCAR-3 ovarian
  TGI: 35.1 µM
BT-549 breast
  TGI: 42.8 µM
NCI/ADR-RES ovarian
  TGI: 44.7 µM

## CCOC(=O)c1ccc(Nc2nc3ccc(C(F)(F)F)cc3nc2-c2ccccc2)cc1
HS 578T breast
  TGI: > 100 µM
LOX IMVI melanoma
  TGI: > 100 µM
HL-60(TB) leukemia
  TGI: > 100 µM
UACC-62 melanoma
  TGI: 74.5 µM
SW-620 colon
  TGI: > 100 µM
NCI-H226 lung
  TGI: > 100 µM
786-0 renal
  TGI: > 100 µM
OVCAR-3 ovarian
  TGI: > 100 µM
NCI/ADR-RES ovarian
  TGI: > 100 µM
CCRF-CEM leukemia
  TGI: > 100 µM

## COc1cc(/C=C/C(=O)O)ccc1O
HS 578T breast
  TGI: > 100 µM
LOX IMVI melanoma
  TGI: > 100 µM
HL-60(TB) leukemia
  TGI: > 100 µM
SW-620 colon
  TGI: > 100 µM
NCI-H226 lung
  TGI: > 100 µM
786-0 renal
  TGI: > 100 µM
OVCAR-3 ovarian
  TGI: > 100 µM
NCI/ADR-RES ovarian
  TGI: > 100 µM
CCRF-CEM leukemia
  TGI: > 100 µM

## C=C(Br)C(Cl)(CBr)CCC(Br)C(C)(C)Cl (stereo not drawn)
HL-60(TB) leukemia
  TGI: > 10 µM
UACC-62 melanoma
  TGI: > 10 µM
A498 renal
  TGI: > 10 µM
SW-620 colon
  TGI: > 10 µM
NCI-H226 lung
  TGI: > 10 µM
786-0 renal
  TGI: > 10 µM
OVCAR-3 ovarian
  TGI: > 10 µM
BT-549 breast
  TGI: > 10 µM
NCI/ADR-RES ovarian
  TGI: > 10 µM
CCRF-CEM leukemia
  TGI: > 10 µM

## COc1ccc(/C=N/n2c(Cc3ccc(Cl)cc3)n[nH]c2=O)cc1
UACC-62 melanoma
  TGI: > 100 µM
A498 renal
  TGI: > 100 µM
SW-620 colon
  TGI: > 100 µM
NCI-H226 lung
  TGI: > 100 µM
786-0 renal
  TGI: 54.6 µM
OVCAR-3 ovarian
  TGI: > 100 µM
BT-549 breast
  TGI: > 100 µM
NCI/ADR-RES ovarian
  TGI: > 100 µM
CCRF-CEM leukemia
  TGI: > 100 µM

## O=C(CN=C(CN(c1ccccc1)c1ccccc1)Oc1c([N+](=O)[O-])cc([N+](=O)[O-])cc1[N+](=O)[O-])N1CCNCC1
HS 578T breast
  TGI: > 100 µM
HL-60(TB) leukemia
  TGI: > 100 µM
UACC-62 melanoma
  TGI: > 100 µM
SW-620 colon
  TGI: > 100 µM
NCI-H226 lung
  TGI: > 100 µM
786-0 renal
  TGI: > 100 µM
OVCAR-3 ovarian
  TGI: > 100 µM
BT-549 breast
  TGI: > 100 µM
CCRF-CEM leukemia
  TGI: > 100 µM

## CCOP(=O)(OCC)C(Cc1ccccc1)N=C(c1ccccc1)c1ccccc1 (stereo not drawn)
HS 578T breast
  TGI: 26.6 µM
LOX IMVI melanoma
  TGI: 24.7 µM
HL-60(TB) leukemia
  TGI: > 100 µM
UACC-62 melanoma
  TGI: 26.1 µM
SW-620 colon
  TGI: 25.2 µM
NCI-H226 lung
  TGI: 32.9 µM
786-0 renal
  TGI: 30.2 µM
OVCAR-3 ovarian
  TGI: 30.3 µM
BT-549 breast
  TGI: 27 µM
NCI/ADR-RES ovarian
  TGI: 28.7 µM
CCRF-CEM leukemia
  TGI: 37.1 µM

## CSc1cc(Cl)c(C)cc1S(=O)(=O)NC(=O)NNc1ccccn1
HS 578T breast
  TGI: > 100 µM
LOX IMVI melanoma
  TGI: > 100 µM
A498 renal
  TGI: > 100 µM
SW-620 colon
  TGI: > 100 µM
NCI-H226 lung
  TGI: > 100 µM
786-0 renal
  TGI: > 100 µM
OVCAR-3 ovarian
  TGI: > 100 µM
NCI/ADR-RES ovarian
  TGI: > 100 µM
CCRF-CEM leukemia
  TGI: > 100 µM

## CCOC(=O)c1c(NC(=O)c2ccccc2)sc2c1CCC2
HS 578T breast
  TGI: > 100 µM
HL-60(TB) leukemia
  TGI: > 100 µM
UACC-62 melanoma
  TGI: > 100 µM
A498 renal
  TGI: > 100 µM
NCI-H226 lung
  TGI: > 100 µM
786-0 renal
  TGI: > 100 µM
OVCAR-3 ovarian
  TGI: > 100 µM
BT-549 breast
  TGI: > 100 µM
NCI/ADR-RES ovarian
  TGI: > 100 µM
CCRF-CEM leukemia
  TGI: > 100 µM

## Cc1[nH]n(-c2nc(O)c(C)c(=O)[nH]2)c(=O)c1CCO
HS 578T breast
  TGI: > 100 µM
HL-60(TB) leukemia
  TGI: > 100 µM
UACC-62 melanoma
  TGI: > 100 µM
A498 renal
  TGI: > 100 µM
SW-620 colon
  TGI: > 100 µM
NCI-H226 lung
  TGI: > 100 µM
786-0 renal
  TGI: > 100 µM
BT-549 breast
  TGI: > 100 µM
CCRF-CEM leukemia
  TGI: > 100 µM

## COC(=O)[C@H]1ON2O[C@@H](O[C@H]3CCCC[C@@H]3C(C)(C)c3ccccc3)C[C@@H]3CC[C@H]1[C@@]32C
HS 578T breast
  TGI: > 100 µM
LOX IMVI melanoma
  TGI: > 100 µM
HL-60(TB) leukemia
  TGI: > 100 µM
UACC-62 melanoma
  TGI: > 100 µM
A498 renal
  TGI: > 100 µM
SW-620 colon
  TGI: > 100 µM
NCI-H226 lung
  TGI: > 100 µM
786-0 renal
  TGI: > 100 µM
OVCAR-3 ovarian
  TGI: > 100 µM
NCI/ADR-RES ovarian
  TGI: > 100 µM
CCRF-CEM leukemia
  TGI: > 100 µM

## CCOC(=O)c1cc2cc(CSc3ccccc3)ccc2oc1=O
HS 578T breast
  TGI: > 100 µM
LOX IMVI melanoma
  TGI: > 100 µM
UACC-62 melanoma
  TGI: > 100 µM
SW-620 colon
  TGI: > 100 µM
NCI-H226 lung
  TGI: > 100 µM
786-0 renal
  TGI: > 100 µM
OVCAR-3 ovarian
  TGI: > 100 µM
BT-549 breast
  TGI: > 100 µM
NCI/ADR-RES ovarian
  TGI: > 100 µM
CCRF-CEM leukemia
  TGI: > 100 µM

## N#Cc1nsnc1-c1nc(-c2nsnc2C#N)nc(-c2nsnc2C#N)n1
HS 578T breast
  TGI: 94 µM
LOX IMVI melanoma
  TGI: > 100 µM
HL-60(TB) leukemia
  TGI: > 100 µM
UACC-62 melanoma
  TGI: > 100 µM
A498 renal
  TGI: > 100 µM
SW-620 colon
  TGI: > 100 µM
NCI-H226 lung
  TGI: > 100 µM
786-0 renal
  TGI: > 100 µM
OVCAR-3 ovarian
  TGI: > 100 µM
BT-549 breast
  TGI: > 100 µM
NCI/ADR-RES ovarian
  TGI: > 100 µM

## CCOC(=O)NC(N(C)C(C(C)C)P(=O)(OCC)OCC)(C(F)(F)F)C(F)(F)F (stereo not drawn)
HS 578T breast
  TGI: > 100 µM
LOX IMVI melanoma
  TGI: > 100 µM
HL-60(TB) leukemia
  TGI: > 100 µM
UACC-62 melanoma
  TGI: > 100 µM
A498 renal
  TGI: > 100 µM
SW-620 colon
  TGI: > 100 µM
NCI-H226 lung
  TGI: > 100 µM
786-0 renal
  TGI: > 100 µM
OVCAR-3 ovarian
  TGI: > 100 µM
NCI/ADR-RES ovarian
  TGI: > 100 µM
CCRF-CEM leukemia
  TGI: > 100 µM

## N#Cc1nc(Cc2ccccc2)oc1N
HS 578T breast
  TGI: > 100 µM
LOX IMVI melanoma
  TGI: > 100 µM
SW-620 colon
  TGI: > 100 µM
NCI-H226 lung
  TGI: > 100 µM
786-0 renal
  TGI: > 100 µM
OVCAR-3 ovarian
  TGI: > 100 µM
BT-549 breast
  TGI: > 100 µM
CCRF-CEM leukemia
  TGI: > 100 µM

## O=C(NCCCCNCCCNC(=O)C(F)(F)F)C(F)(F)F
HS 578T breast
  TGI: > 100 µM
HL-60(TB) leukemia
  TGI: > 100 µM
UACC-62 melanoma
  TGI: > 100 µM
A498 renal
  TGI: > 100 µM
SW-620 colon
  TGI: > 100 µM
NCI-H226 lung
  TGI: > 100 µM
786-0 renal
  TGI: > 100 µM
OVCAR-3 ovarian
  TGI: > 100 µM
BT-549 breast
  TGI: > 100 µM
NCI/ADR-RES ovarian
  TGI: > 100 µM
CCRF-CEM leukemia
  TGI: > 100 µM

## CC1(C)OC2CN(C(=O)OCc3ccccc3)C(CO)C2O1 (stereo not drawn)
HS 578T breast
  TGI: > 100 µM
LOX IMVI melanoma
  TGI: > 100 µM
HL-60(TB) leukemia
  TGI: > 100 µM
UACC-62 melanoma
  TGI: > 100 µM
A498 renal
  TGI: > 100 µM
SW-620 colon
  TGI: > 100 µM
NCI-H226 lung
  TGI: > 100 µM
786-0 renal
  TGI: > 100 µM
OVCAR-3 ovarian
  TGI: > 100 µM
BT-549 breast
  TGI: > 100 µM
NCI/ADR-RES ovarian
  TGI: > 100 µM

Reference: PubChem BioAssay (NCI)
